In article PMC9894226 (Proceedings of the National Academy of Sciences of the …, 2022):
Non-standard residues stand in square brackets, D forms with d. Residues, ends and D or L forms follow the SMILES beside them. Nle = CCCC[C@H](N)C(=O)O

Key:
[1] = pH 7.4; ref [67]; cited from earlier work
[2] = test system: C. elegans CL2355; assay: Chemotaxis assay in transgenic C. elegans; assay type: in vivo, Caenorhabditis elegans; conditions: fed 0.5, 5 and 50 μM; untreated CL2355 0.18 ± 0.01, CL2122 0.29 ± 0.01
[3] = test system: 5xFAD mice; assay: PET/CT imaging in 5xFAD mice; assay type: in vivo, mouse; conditions: 6-mo-old 5xFAD mice, 1 h post injection

| Compound | Chemotaxis index (CI) of CL2355 mutants [2] | other results |
| --- | --- | --- |
| O=C(O)CN1CCN(CC(=O)O)CCN(CC(=O)O)CC1 [NOTA, 2,2′,2”-(1,4,7-triazacyclononane-1,4,7-triyl)triacetic acid] |  | Thermodynamic stability constant of Cu^2+ complex (log KML) [1]: 23.33 |
| CCCC[C@@H]1NC(=O)[C@@H](CC(C)C)NC(=O)[C@H](CCCCN)NC(=O)[C@@H](CO)NC(=O)[C@H](Cc2c[nH]cn2)NC(=O)[C@@H](C)NC1=O [[w4a]-1, c-(D-Leu-Nle-D-Ala-His-D-Ser-Lys)] (cyclo(H[dS]K[dL][Nle][dA])) | significantly less protective than peptide 1 |  |
| [11CH3]Nc1ccc(-c2nc3ccc(O)cc3s2)cc1 [^11C-PIB, ^11C-Pittsburgh compound B] |  | Hippocampal uptake (PET) [3]: 1.038 ± 0.028 %ID/g |
| H-[dL][Nle][dW]H[dS]K-OH [Lin-1] | significantly less protective than peptide 1 |  |
